In publication PMC5803267, “A small molecule inhibitor of Rheb selectively targets mTORC1 signaling” (Nature Communications, 2018):

Tests used:
[1] = system: mTORC1 signaling in TRI102 cells; experiment: mTORC1 signaling Western blot in TRI102 cells; assay type: cell-based, human; conditions: replete and serum-starved conditions, 90 min, dose-dependent
Description: MCF-7 cells were serum-starved for 16 h and treated with compound for 90 min before cell lysis and Western blot analysis. For insulin-stimulated cells, 100 nM insulin was added 30 min before cell lysis. For EGF-stimulated cells, 100 ng mL^−1 EGF was added 10 min before cell lysis. c Rap1 activity was detected in lysates loaded in vitro with either GDP or GTPγS and treated with NR1 at the indicated concentrations. This was followed by a subsequent pulldown of GST-RalGDS-RBD. Bound Rap1 was detected by Western blot. d Evaluation of NR1 in a LAM patient-derived cell line (TRI102) under replete and serum-starved conditions. For replete conditions, TRI102 cells were treated for 90 min with compound in DMEM + 10% FBS. For serum-starved conditions, TRI102 cells were serum-starved 16 h and then treated for 90 min with compound prior to cell lysis and Western blot analysis. e HEK293 cells co-transfected with the indicated mTOR constructs and HA-GST-S6K1 were starved of amino acids or treated with NR1. To assess mTORC1 activity, an HA IP was performed and Western blots probed for ^T389pS6K1. f Chronic treatment of PC3 cells with NR1 to evaluate the inhibition of mTORC1 (using ^T389pS6K1) versus mTORC2 (using ^S473pAKT). PC3 cells were treated with compound under replete conditions for 24 h prior to cell lysis and Western blot analysis. […]

pS6K1 in MCF-7 cells = experiment: Insulin-stimulated mTORC1 signaling Western blot in MCF-7 cells; assay type: cell-based, human; conditions: MCF-7, 10 µM NR1
Source text: We next evaluated the activity of NR1 in cell culture. Selective inhibition of mTORC1 in cells produces a specific signaling signature characterized by a reduction in phosphorylation of the mTORC1 substrates S6K1 and 4E-BP1 and increase in phosphorylation of AKT, catalyzed by mTORC2. This distinctive profile reflects the relief of a feedback loop where active S6K1 directly phosphorylates IRS1, resulting in the degradation of IRS1 and subsequent reduction of growth factor signaling from RTKs to downstream effectors such as AKT[1]. Conversely, reduction in ^T389pS6K1 is expected to lead to an increase in ^S473pAKT levels. We used AlphaLISA assays to detect ^T389pS6K1 and ^S473pAKT in MCF-7 cells. During the development of the assays, we noticed that ^T389pS6K1 was more responsive to our compound series than ^T37/46p4E-BP1, which may be due to differences in mTORC1 substrate classes in a cellular setting. […]
MCF-7 cells were serum-starved for 16 h and treated with compound for 90 min before cell lysis and Western blot analysis. […] For EGF-stimulated cells, 100 ng mL^−1 EGF was added 10 min before cell lysis. c Rap1 activity was detected in lysates loaded in vitro with either GDP or GTPγS and treated with NR1 at the indicated concentrations. […] Bound Rap1 was detected by Western blot. d Evaluation of NR1 in a LAM patient-derived cell line (TRI102) under replete and serum-starved conditions. […]

recombinant human mTOR = target: T1, recombinant human mTOR (Homo sapiens, UniProt P42345); experiment: Rheb-independent mTOR in vitro kinase assay (HotSpot, radiometric); assay type: biochemical; conditions: up to a concentration of 30 µM
T1 construct: GST (N); host or cells: insect cells
T1 sequence (P42345 1360-2549): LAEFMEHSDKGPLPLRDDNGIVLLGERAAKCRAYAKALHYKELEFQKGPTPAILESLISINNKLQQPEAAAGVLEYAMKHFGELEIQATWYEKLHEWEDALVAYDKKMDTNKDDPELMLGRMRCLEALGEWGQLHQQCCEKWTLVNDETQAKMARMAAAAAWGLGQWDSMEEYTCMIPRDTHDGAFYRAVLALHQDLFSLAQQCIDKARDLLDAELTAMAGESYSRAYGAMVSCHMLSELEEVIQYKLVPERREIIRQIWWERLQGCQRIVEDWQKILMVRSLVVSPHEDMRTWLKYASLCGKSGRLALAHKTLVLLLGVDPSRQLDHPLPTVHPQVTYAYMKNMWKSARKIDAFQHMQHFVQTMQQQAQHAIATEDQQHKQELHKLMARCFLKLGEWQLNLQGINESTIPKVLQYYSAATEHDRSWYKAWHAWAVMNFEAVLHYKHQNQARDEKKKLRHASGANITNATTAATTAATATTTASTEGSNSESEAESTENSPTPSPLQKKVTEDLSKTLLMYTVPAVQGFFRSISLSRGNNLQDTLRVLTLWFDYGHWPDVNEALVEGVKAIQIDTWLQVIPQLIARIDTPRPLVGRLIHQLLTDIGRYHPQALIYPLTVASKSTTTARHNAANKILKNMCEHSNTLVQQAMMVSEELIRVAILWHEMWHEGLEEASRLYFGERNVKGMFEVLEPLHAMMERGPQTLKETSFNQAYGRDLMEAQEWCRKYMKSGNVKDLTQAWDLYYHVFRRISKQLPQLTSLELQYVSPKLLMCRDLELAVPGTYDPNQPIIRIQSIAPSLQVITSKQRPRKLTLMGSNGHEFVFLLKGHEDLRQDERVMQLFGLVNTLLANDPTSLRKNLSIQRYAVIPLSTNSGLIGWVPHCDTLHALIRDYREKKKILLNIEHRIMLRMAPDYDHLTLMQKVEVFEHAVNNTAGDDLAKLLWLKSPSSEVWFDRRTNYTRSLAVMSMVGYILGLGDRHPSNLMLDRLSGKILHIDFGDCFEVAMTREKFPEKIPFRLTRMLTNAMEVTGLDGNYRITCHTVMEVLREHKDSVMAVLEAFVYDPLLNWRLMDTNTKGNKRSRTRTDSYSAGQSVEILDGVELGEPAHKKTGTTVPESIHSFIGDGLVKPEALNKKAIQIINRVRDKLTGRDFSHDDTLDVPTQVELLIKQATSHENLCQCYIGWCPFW

[2] = system: mTORC1 activity (S240/244pS6) in kidney; experiment: PD study: feeding-induced mTORC1 activation in kidney; assay type: in vivo, mouse; conditions: mice fasted 16 h, 30 mg kg^−1 IP, re-fed 2 h
Description: The selective inhibition of mTORC1 activation by NR1 in vitro and in cell-based systems prompted us to evaluate the effect of this compound on mTORC1 activity in vivo. […] In particular, the plasma concentration of NR1 was sustained over 5 µM for 2 h after IP administration of a 30 mg kg^−1 dose (Supplementary Fig. 10). We therefore carried out a pharmacodynamic (PD) study to evaluate the efficacy of NR1 at inhibiting mTORC1 signaling in vivo. In this experiment, mice were starved overnight to achieve a low basal level of mTORC1 activation (pre-dose). After a 16 h fast, the animals were treated with either vehicle or 30 mg kg^−1 NR1 and allowed to re-feed for 2 h before sacrifice and tissue collection. mTORC1 activity was measured by quantification of ^S240/244pS6 by Western blot analysis with a specific antibody. […]
This study was conducted in accordance with the requirements for the humane care and use of animals set forth in the Animal Welfare Act, the IACUC Guide for the Care and Use of Laboratory Animals, applicable Shanghai and state laws, and regulations and policies of Shanghai ChemPartner Ltd. The animals were not randomized, and the study was not blinded. […] Compound levels in the plasma of treated mice were measured by LC-MS/MS and compared to a standard curve of compound diluted into mouse plasma. […]

Compound: CN(C)C(=O)c1ccc(Cn2c(C(=O)O)cc3c(Br)cc(Sc4ccc(Cl)c(Cl)c4)cc32)cc1 [NR1, 4-bromo-6-(3,4-dichlorophenylthio)-1-(4-(dimethylcarbamoyl)benzyl)-1H-indole-2-carboxylic acid]
- mTORC1 signaling in TRI102 cells [1]: inhibits mTORC1 signaling
- S6K1 phosphorylation compared with rapamycin (pS6K1 in MCF-7 cells): does not inhibit S6K1 phosphorylation as well as 100 nM rapamycin
- inhibitory activity in HotSpot (recombinant human mTOR): no inhibitory activity
- mTORC1 activity (S240/244pS6) in kidney versus vehicle [2]: significantly reduced mTORC1 activity
